According to patent US12479847B2 (DANA-FARBER CANCER INSTITUTE, INC., priority 2019, dated 2025):

Columns and labels:
Test in all cases: KINOMEscan (ScanMAX) kinase profiling
Type in all cases: binding
panel of 468 kinases [1] = biological target: T1, panel of 468 kinases (Homo sapiens, UniProt O96013); settings: PAK4; 1 μM; read-out: % control
T1 construct: purchased KINOMEscan (ScanMAX) service

panel of 468 kinases [2] = biological target: T2, panel of 468 kinases (Homo sapiens, UniProt P51956); settings: NEK3; 1 μM; read-out: % control
T2 construct: purchased KINOMEscan (ScanMAX) service
T2 sequence (P51956 1-506): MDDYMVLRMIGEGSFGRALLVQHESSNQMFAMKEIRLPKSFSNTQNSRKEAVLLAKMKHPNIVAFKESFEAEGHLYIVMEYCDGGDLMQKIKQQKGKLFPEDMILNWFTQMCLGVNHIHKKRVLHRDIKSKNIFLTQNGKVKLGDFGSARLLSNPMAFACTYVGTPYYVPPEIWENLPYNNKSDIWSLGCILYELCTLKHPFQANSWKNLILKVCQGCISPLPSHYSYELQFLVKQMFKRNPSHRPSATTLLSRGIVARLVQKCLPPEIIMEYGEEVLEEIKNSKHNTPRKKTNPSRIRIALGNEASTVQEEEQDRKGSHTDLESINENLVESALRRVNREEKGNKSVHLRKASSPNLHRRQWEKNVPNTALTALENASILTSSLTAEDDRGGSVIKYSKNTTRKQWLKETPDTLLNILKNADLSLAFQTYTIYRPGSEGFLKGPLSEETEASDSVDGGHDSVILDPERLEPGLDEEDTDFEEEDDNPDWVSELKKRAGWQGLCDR

panel of 468 kinases [3] = biological target: T3, panel of 468 kinases (Homo sapiens, UniProt Q8TD19); settings: NEK9; 1 μM; read-out: % control
T3 construct: purchased KINOMEscan (ScanMAX) service
T3 sequence (Q8TD19 1-979): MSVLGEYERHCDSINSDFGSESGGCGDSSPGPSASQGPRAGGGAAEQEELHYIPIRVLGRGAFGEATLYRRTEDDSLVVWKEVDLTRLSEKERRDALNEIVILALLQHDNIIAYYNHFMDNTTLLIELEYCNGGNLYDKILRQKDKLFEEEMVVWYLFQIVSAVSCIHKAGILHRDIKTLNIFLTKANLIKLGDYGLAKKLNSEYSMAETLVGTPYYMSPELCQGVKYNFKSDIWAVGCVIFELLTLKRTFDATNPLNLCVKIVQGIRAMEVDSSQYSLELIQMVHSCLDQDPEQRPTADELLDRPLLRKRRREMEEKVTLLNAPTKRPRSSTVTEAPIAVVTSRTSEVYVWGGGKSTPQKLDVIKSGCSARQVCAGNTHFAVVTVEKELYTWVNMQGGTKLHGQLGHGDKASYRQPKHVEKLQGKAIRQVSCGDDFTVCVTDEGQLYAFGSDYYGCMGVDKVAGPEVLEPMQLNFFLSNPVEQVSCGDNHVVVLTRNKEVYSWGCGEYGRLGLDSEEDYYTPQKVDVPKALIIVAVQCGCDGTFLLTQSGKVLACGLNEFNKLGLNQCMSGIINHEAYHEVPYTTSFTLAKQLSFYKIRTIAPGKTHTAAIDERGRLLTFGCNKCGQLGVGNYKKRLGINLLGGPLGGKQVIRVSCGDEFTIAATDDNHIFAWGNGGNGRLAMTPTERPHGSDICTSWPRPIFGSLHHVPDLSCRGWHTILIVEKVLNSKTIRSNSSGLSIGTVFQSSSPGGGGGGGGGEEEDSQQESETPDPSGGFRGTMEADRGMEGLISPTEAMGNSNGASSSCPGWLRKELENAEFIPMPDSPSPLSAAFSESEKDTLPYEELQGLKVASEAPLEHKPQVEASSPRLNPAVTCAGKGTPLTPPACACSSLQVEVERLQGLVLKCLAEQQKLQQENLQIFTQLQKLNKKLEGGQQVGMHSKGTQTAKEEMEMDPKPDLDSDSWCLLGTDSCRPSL

T1 sequence (O96013 whole entry): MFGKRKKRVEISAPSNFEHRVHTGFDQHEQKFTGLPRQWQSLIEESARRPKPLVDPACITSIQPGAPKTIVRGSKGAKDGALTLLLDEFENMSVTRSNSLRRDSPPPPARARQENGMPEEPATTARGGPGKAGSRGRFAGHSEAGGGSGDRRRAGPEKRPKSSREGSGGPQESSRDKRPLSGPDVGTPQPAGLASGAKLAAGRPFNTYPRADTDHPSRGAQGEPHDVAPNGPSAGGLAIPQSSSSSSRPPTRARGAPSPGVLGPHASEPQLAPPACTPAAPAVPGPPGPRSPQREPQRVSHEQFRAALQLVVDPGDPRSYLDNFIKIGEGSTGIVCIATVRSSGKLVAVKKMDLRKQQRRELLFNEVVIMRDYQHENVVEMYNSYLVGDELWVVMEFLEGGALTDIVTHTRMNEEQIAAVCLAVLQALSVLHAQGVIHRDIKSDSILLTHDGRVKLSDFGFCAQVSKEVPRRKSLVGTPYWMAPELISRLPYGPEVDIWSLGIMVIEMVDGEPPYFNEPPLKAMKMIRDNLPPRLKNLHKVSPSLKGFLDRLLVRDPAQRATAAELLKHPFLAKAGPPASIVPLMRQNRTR

| SMILES | remaining binding at 1 µM (panel of 468 kinases [1]) | remaining binding at 1 µM (panel of 468 kinases [2]) | remaining binding at 1 µM (panel of 468 kinases [3]) |
| --- | --- | --- | --- |
| CNc1nc(Nc2ccc(S(=O)(=O)N3CCC(N4CCOCC4)CC3)cc2OC)nc2[nH]cc(Cl)c12 [Compound 12, 5-chloro-N2-(2-methoxy-4-((4-morpholinopiperidin-1-yl)sulfonyl)phenyl)-N4-methyl-7H-pyrrolo[2,3-d]pyrimidine-2,4-diamine] | 100% | 51% | 100% |
| CNc1nc(Nc2ccc(C(=O)N3CCC(N4CCOCC4)CC3)c3c2OCO3)nc2[nH]cc(Cl)c12 [Compound 75, (7-((5-chloro-4-(methylamino)-7H-pyrrolo[2,3-d]pyrimidin-2-yl)amino)benzo[d][1,3]dioxol-4-yl)(4-morpholinopiperidin-1-yl)methanone] | 100% | 54% | 100% |
| CNc1nc(Nc2ccc(P3(=O)CCN(C4CCOCC4)CC3)cc2OC)nc2[nH]cc(Cl)c12 [Compound 77, 4-(4-((5-chloro-4-(methylamino)-7H-pyrrolo[2,3-d]pyrimidin-2-yl)amino)-3-methoxyphenyl)-1-(tetrahydro-2H-pyran-4-yl)-1,4-azaphosphinane 4-oxide] | 100% | 52% | 100% |
